Laboratory results: PMC10820527, “Synthesis, Characterization, and Investigation of Anti-Inflammatory and Cytotoxic Activities of Novel Thiourea Derivatives of Naproxen” (Pharmaceutics, 2023)

Key:
[1] = system: MDA-MB-231; assay: MTT cytotoxicity assay, MDA-MB-231; format: cell-based, human; settings: for IC50: mean ± SD
Protocol: (§1) Three cancer cell lines (MDA-MB-231, HCT116 and HeLa; i.e., human breast cancer cells, human colorectal cancer cells, and human cervical cancer cells, respectively), and one non-malignant fibroblast MRC-5 cell line (control) were used in this study. The American Type Cell Collection (ATCC, Manassas, VA, USA) provided all examined cell lines. The cells were grown in a complete medium made up of high-glucose DMEM media supplemented with 10% fetal bovine serum and […] L-glutamine (both from Sigma-Aldrich, USA). The cells were cultured in 25 cc flasks (Thermo Fischer Scientific, Waltham, MA, USA) at 37 °C with 100% humidity in a 5% CO2 atmosphere.
(§2) The MTT test was used to assess the cytotoxicity of compounds 1–14 [44]. The cytotoxicity of naproxen was also investigated due to its clinical use and structural similarity. Throughout the exponential development period, cells were taken from culture flasks and counted, and 5 × 10^3 cells/well were planted into 96-well culture plates. Following that, the cell lines were treated with varying doses of the investigated chemicals (1–14), naproxen ([…]), and fresh complete media as a control. All evaluated cells were incubated for 24, 48, and 72 h at 37 °C in an environment containing 5% CO2 and 100% humidity. Following incubation, each well’s culture media was taken out, each well received an addition of MTT solution at a final concentration of 0.5 mg/mL, and the cells were left to incubate for an additional four hours. The MTT solution was then withdrawn carefully, and the formazan crystals were dissolved in DMSO. After shaking the plates for 10 min, absorbance at 595 nm was measured using a multiplate reader (Zenyth 3100, Anthos Labtec Instruments, Salzburg, Austria). All concentrations of the tested compounds were performed in three separate wells of the microtiter plates and in three separate experiments. The results were reported as a ratio to the control value, untreated cells. IC50 values were also determined using Microsoft Office Excel 2021. The percentage of viable cells was estimated by dividing the readout absorbance value in the wells containing treated cells by the average absorbance value measured in the wells containing untreated cells, and multiplying the result by 100 [44]. % of the viable cells = ((absorbance of treated cell-absorbance of blank)/(absorbance of untreated cell-absorbance of blank)) × 100(3)

[2] = target: T1, COX-2 (Homo sapiens, UniProt P35354); assay: Fluorometric COX-2 inhibitor screening kit; format: biochemical; settings: mean of two measurements with standard error, read-out: COX-2 Percent of Inhibition
T1 construct: purchased Abcam
T1 sequence (P35354 18-604): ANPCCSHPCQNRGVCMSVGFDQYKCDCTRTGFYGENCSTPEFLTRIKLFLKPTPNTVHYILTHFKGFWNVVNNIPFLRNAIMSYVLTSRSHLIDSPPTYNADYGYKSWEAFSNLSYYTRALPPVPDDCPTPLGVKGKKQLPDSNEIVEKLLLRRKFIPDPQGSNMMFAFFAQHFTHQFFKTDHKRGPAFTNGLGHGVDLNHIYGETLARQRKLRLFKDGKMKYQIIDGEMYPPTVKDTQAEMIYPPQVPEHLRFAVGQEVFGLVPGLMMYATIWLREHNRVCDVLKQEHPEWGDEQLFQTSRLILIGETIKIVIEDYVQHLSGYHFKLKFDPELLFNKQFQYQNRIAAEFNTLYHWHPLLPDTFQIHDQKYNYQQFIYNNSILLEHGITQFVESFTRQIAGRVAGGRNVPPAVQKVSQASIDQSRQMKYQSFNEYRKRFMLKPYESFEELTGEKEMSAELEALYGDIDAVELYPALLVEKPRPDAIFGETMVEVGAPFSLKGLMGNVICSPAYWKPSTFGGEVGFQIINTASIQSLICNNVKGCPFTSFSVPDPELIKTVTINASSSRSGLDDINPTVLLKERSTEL
Protocol: The COX-2 and 5-LOX inhibitory potential of the tested compounds was evaluated using a fluorometric COX-2 and 5-LOX inhibitor screening kit (Abcam, Cambridge, UK). These tests are based on determining the presence of prostaglandin G2 (a product of COX enzyme activity) or an intermediate generated by the enzyme 5-LOX, using fluorometric detection. The mentioned experiments were performed according to the manufacturer’s instructions.
For the determination of COX-2 inhibitory potential of tested compounds, stock solutions (5 mM in DMSO) were diluted with the same solvent (test solutions). The test solutions were further diluted with COX assay buffer by mixing 2 µL of the corresponding test solution and 8 µL of COX assay buffer. For the preparation of inhibitory control (IC), celecoxib (2 µL) and COX assay buffer (8 µL) were mixed. Solvent control (SC) was prepared by mixing DMSO (2 µL) and the COX assay buffer (8 µL), enzyme control (EC) was 10 µL of COX assay buffer, while the samples (S) were 10 µL of diluted test solutions. IC, SC, EC, and S were transferred into corresponding wells. For the determination of 5-LOX inhibitory potential of tested compounds, stock solutions of the same concentration (5 mM) were prepared in DMSO. These solutions were further diluted with the same solvent to obtain the test solutions, which were added into the appropriate wells (2 µL). EC, SC, and IC were prepared by adding 2 µL of the assay buffer, DMSO, and zileuton into corresponding wells, respectively.
The fluorescence of the samples was measured kinetically at 25 °C (COX-2: Ex/Em = 535/587 nm, during 10 min; 5-LOX: Ek/Em = 500/536 nm during 20 min) using a Synergi LX multi-mode microplate reader (BioTek, Shoreline, WA, USA).

[3] = system: MRC-5 fibroblast cell line; assay: MTT cytotoxicity assay, MRC-5; format: cell-based; settings: Homo sapiens, mean ± SD
Protocol: as §1, §2

[4] = Homo sapiens, MDA-MB-231, 24 h, 24 h
[5] = Homo sapiens, MDA-MB-231, 48 h, 48 h
[6] = Homo sapiens, MDA-MB-231, 72 h, 72 h

COc1ccc2cc([C@H](C)C(=O)NC(=S)Nc3ccccc3C)ccc2c1 [Compound 10, (S)-2-(6-methoxynaphthalen-2-yl)-N-(o-tolylcarbamothioyl)propanamide]
Cytotoxic effect against the MDA-MB-231 cell line (in words) [1]: moderate cytotoxic effect
IC50 ([1]; 72 h): 42.2 ± 9.8 µM
IC50 [1, 4]: 101 ± 11.2 µM
IC50 [1, 5]: 70.5 ± 8.3 µM
IC50 [1, 6]: 42 ± 9 µM
inhibition at 10 µM [2]: 12.6 ± 4.99%
IC50 ([3]; MRC5, 24 h): > 200 µM
IC50 ([3]; MRC5, 48 h): > 200 µM
IC50 ([3]; MRC5, 72 h): > 200 µM

COc1ccc2cc([C@H](C)C(=O)NC(=S)Nc3ccccc3)ccc2c1 [Compound 8, (S)-2-(6-methoxynaphthalen-2-yl)-N-(phenylcarbamothioyl)propanamide]
IC50 [1, 4]: > 200 µM
IC50 [1, 5]: > 200 µM
IC50 [1, 6]: > 200 µM
inhibition at 10 µM [2]: 36.2 ± 16.4%
IC50 ([3]; MRC5, 24 h): > 200 µM
IC50 ([3]; MRC5, 48 h): > 200 µM
IC50 ([3]; MRC5, 72 h): > 200 µM

COc1ccc2cc([C@H](C)C(=O)NC(=S)Nc3ccccc3OC)ccc2c1 [Compound 11, (S)-2-(6-methoxynaphthalen-2-yl)-N-((2-methoxyphenyl)carbamothioyl)propanamide]
IC50 [1, 4]: > 200 µM
IC50 [1, 5]: > 200 µM
IC50 [1, 6]: > 200 µM
inhibition at 10 µM [2]: 16.2 ± 13.7%
IC50 ([3]; MRC5, 24 h): > 200 µM
IC50 ([3]; MRC5, 48 h): > 200 µM
IC50 ([3]; MRC5, 72 h): > 200 µM

COc1ccc2cc([C@H](C)C(=O)NC(=S)Nc3ccccc3F)ccc2c1 [Compound 12, (S)-N-((2-fluorophenyl)carbamothioyl)-2-(6-methoxynaphthalen-2-yl)propanamide]
IC50 [1, 4]: > 200 µM
IC50 [1, 5]: > 200 µM
IC50 [1, 6]: > 200 µM
inhibition at 10 µM [2]: 13.8 ± 6.41%
IC50 ([3]; MRC5, 24 h): > 200 µM
IC50 ([3]; MRC5, 48 h): > 200 µM
IC50 ([3]; MRC5, 72 h): > 200 µM

COC(=O)[C@H](Cc1c[nH]c2ccccc12)NC(=S)NC(=O)[C@@H](C)c1ccc2cc(OC)ccc2c1 [Compound 14, Methyl (((S)-2-(6-methoxynaphthalen-2-yl)propanoyl)carbamothioyl)tryptophanate]
IC50 [1, 4]: > 200 µM
IC50 [1, 5]: > 200 µM
IC50 [1, 6]: 117 ± 15.3 µM
inhibition at 10 µM [2]: 29.8 ± 12.1%
IC50 ([3]; MRC5, 24 h): > 200 µM
IC50 ([3]; MRC5, 48 h): > 200 µM
IC50 ([3]; MRC5, 72 h): > 200 µM

COC(=O)[C@H](Cc1ccccc1)NC(=S)NC(=O)[C@@H](C)c1ccc2cc(OC)ccc2c1 [Compound 13, Methyl (((S)-2-(6-methoxynaphthalen-2-yl)propanoyl)carbamothioyl)phenylalaninate]
IC50 [1, 4]: > 200 µM
IC50 [1, 5]: > 200 µM
IC50 [1, 6]: 99.5 ± 8.2 µM
inhibition at 10 µM [2]: 23.1 ± 9.83%
IC50 ([3]; MRC5, 24 h): > 200 µM
IC50 ([3]; MRC5, 48 h): > 200 µM
IC50 ([3]; MRC5, 72 h): > 200 µM

COc1ccc2cc([C@H](C)C(=O)NC(=S)Nc3ccc(C)cc3)ccc2c1 [Compound 9, (S)-2-(6-methoxynaphthalen-2-yl)-N-(p-tolylcarbamothioyl)propanamide]
IC50 [1, 4]: > 200 µM
IC50 [1, 5]: > 200 µM
IC50 [1, 6]: 112 ± 18.1 µM
inhibition at 10 µM [2]: 26.8 ± 6.07%
IC50 ([3]; MRC5, 24 h): > 200 µM
IC50 ([3]; MRC5, 48 h): > 200 µM
IC50 ([3]; MRC5, 72 h): > 200 µM
